Results published in US12194039B2, “Methods of treating heart failure by administering omecamtiv mecarbil” (Cytokinetics, Inc., priority 2020, dated 2025).
Like-named read-outs stand apart in the source and are kept apart here.

How the values were obtained:
Type in all cases: in vivo, human
[1] = tested on: patients with heart failure and reduced ejection fraction; conditions: for Change in KCCQ total symptom score at week 24, least squares mean (SE): scale 0 to 100; for All-cause death, hazard ratio (95% CI) / Cardiovascular death, hazard ratio (95% CI) / Heart failure event, hazard ratio (95% CI) / Heart failure hospitalization, hazard ratio (95% CI) / Primary composite outcome, hazard ratio (95% CI): vs placebo; for Primary composite outcome, hazard ratio (95% CI): overall trial population
Description: Patient eligibility requirements included age 18-85 years, New York Heart Association functional class (NYHA) II-IV symptoms, and ejection fraction of 35% or less. Participants were currently hospitalized for heart failure (in-patients) or had either an urgent visit to the emergency department or a hospitalization for heart failure (outpatients) within one year prior to randomization. […] Patients were required to receive standard drug and device therapy for heart failure consistent with regional clinical practice guidelines and doses optimized according to investigator judgment.
Key exclusion criteria for patients included current hemodynamic or clinical instability requiring mechanical or intravenous medication, systolic blood pressure (SBP)<85 mmHg, estimated glomerular filtration rate (eGFR)<20 mL/min/1.73 m^2, recent acute coronary syndrome events or cardiovascular procedures (including planned), and other conditions that would adversely affect participation in the trial.
All eligible participants were randomized 1:1 to oral administration of either placebo or omecamtiv mecarbil (pharmacokinetic-guided dosing: 25, 37.5 or 50 mg) twice daily. Pre-dose plasma concentrations of omecamtiv mecarbil were measured at weeks 2 and 6 with respective dose adjustments on weeks 4 and 8. The patient and investigator were blinded to the plasma concentrations and dispensed dose. The full schedule of assessments is provided in the protocol available at NEJM.org. Study drug was temporarily withheld if the participant experienced clinical signs or symptoms consistent with acute myocardial infarction or ischemia.
The study was event-driven and was ended after approximately 1590 cardiovascular deaths. The overall type I error was 0.05 for 2-sided testing across primary and secondary endpoints with control for multiplicity testing. A single interim efficacy analysis was conducted after approximately two-thirds of the targeted number of cardiovascular deaths accrued with a one-sided alpha of 0.0005. Given the negligible impact of this interim on the final alpha, the full 0.05 was used in the final analysis consistent with the Haybittle-Peto approach. […] The mean differences in the KCCQ TSS change from baseline to Week 24 were estimated using a mixed model stratified by randomization setting (inpatient and outpatient) containing baseline TSS value, region, baseline eGFR, scheduled visit, treatment group, and the interaction of treatment group with scheduled visit. A joint omnibus F-test was used to test the treatment effect for the KCCQ TSS. An overall pooled estimate for the KCCQ TSS treatment difference to placebo were conducted using a likelihood based approach. The prespecified safety analyses included: serious adverse events; adverse events associated with discontinuation of study treatment; “adverse events of interest” i.e., ventricular arrhythmias requiring treatment and positively adjudicated major cardiac ischemic events (including myocardial infarction, hospitalization for unstable angina, coronary revascularization). […] All analyses were performed with the use of SAS software, version 9.4 (SAS Institute).
The cumulative incidences of the primary outcome, heart failure events, death from cardiovascular causes and death from any cause were estimated with the use of the Kaplan-Meier method. Hazard ratios and 95% confidence intervals were estimated with the use of Cox regression models stratified by randomization location and region and treatment with omecamtiv mecarbil or placebo as explanatory variables. Analyses are based upon all participants who underwent randomization.

[2] = tested on: patients with EF≤30%, without AFF, without digoxin
[3] = Single 35 mg dose of radiolabeled OM: blood to plasma ratio and excretion; conditions: oral radiolabeled OM, healthy subjects
Description: The volume of distribution at steady state was approximately 4.8-6.6 L/kg.
Clearance of OM after oral administration was primarily through metabolism in the liver. […] Following oral administration of radiolabeled OM to healthy subjects, approximately 49% of the dose was excreted in urine (primarily as metabolites with 8% of parent compound recovered) and 38% in feces (primarily as unchanged drug).

[4] = Drug interactions: change in OM pharmacokinetics in the presence of co-administered drugs
CYP3A4 = test: Clinical studies and physiologically based pharmacokinetic modeling of OM as perpetrator; conditions: clinical studies and PBPK modeling; result in words
Description: OM may be administered with drugs that are substrates of CYP3A4, CYP2C8, P-gp or BCRP.

[5] = N = 4120, median follow-up 21.8 months
[6] = component of primary composite, N = 4120
[7] = EF ≤30%, no AFF, no digoxin, OM + standard care (n = 2674)
[8] = EF ≤30%, no AFF, no digoxin, OM vs Pbo
[9] = CYP2D6 genotype: PM (N = 8) versus EM (N = 16)
[10] = with P-gp inhibitor amiodarone 600 mg SD, OM 50 mg SD, vs OM alone
[11] = with moderate CYP3A inhibitor diltiazem 240 mg QD × 8 days, OM 10 mg SD, vs OM alone
[12] = with pH modifying agent omeprazole 40 mg QD × 6 days, OM 50 mg SD, vs OM alone
[13] = with strong CYP3A and P-gp inhibitor ketoconazole 200 mg BID × 8 days, OM 10 mg SD, vs OM alone

COC(=O)N1CCN(Cc2cccc(NC(=O)Nc3ccc(C)nc3)c2F)CC1 [omecamtiv mecarbil]
Change in KCCQ total symptom score at week 24, difference vs placebo (95% CI) ([1]; Inpatients): 2.5 | Change in KCCQ total symptom score at week 24, difference vs placebo (95% CI) ([1]; Inpatients, listed as Omecamtiv Mecarbil): 2.5 (0.54, 4.46) | Change in KCCQ total symptom score at week 24, least squares mean (SE) ([1]; Inpatients): 23.7 (0.70) | All-cause death, % of patients ([1]; N = 4120): 25.9% | All-cause death, Events/100 patient-yrs ([1]; N = 4120): 14.4 Events/100 patient-yrs | All-cause death, no. of patients ([1]; N = 4120): 1067 no. | Cardiovascular death, Events/100 patient-yrs ([1]; N = 4120): 10.9 Events/100 patient-yrs | Heart failure event (first), % of patients ([1]; N = 4120): 28.6% | Heart failure event (first), no. of patients ([1]; N = 4120): 1177 no. | Heart failure event, Events/100 patient-yrs ([1]; N = 4120): 18.7 Events/100 patient-yrs | Heart failure hospitalization (first), % of patients ([1]; N = 4120): 27.7% | Heart failure hospitalization (first), no. of patients ([1]; N = 4120): 1142 no. | Heart failure hospitalization, Events/100 patient-yrs ([1]; N = 4120): 18.0 Events/100 patient-yrs | Primary composite outcome, Events/100 patient-yrs ([1]; N = 4120): 24.2 Events/100 patient-yrs | Primary composite outcome (first heart failure event or cardiovascular death), % of patients [1, 5]: 37.0% | Primary composite outcome (first heart failure event or cardiovascular death), no. of patients [1, 5]: 1523 no. | Change in KCCQ total symptom score at week 24, difference vs placebo (95% CI) ([1]; Outpatients): −0.46 | Change in KCCQ total symptom score at week 24, difference vs placebo (95% CI) ([1]; Outpatients, listed as Omecamtiv Mecarbil): −0.5 (−1.40, 0.48) | Change in KCCQ total symptom score at week 24, least squares mean (SE) ([1]; Outpatients): 5.8 (0.34) | Cardiovascular death as first event, % of patients [1, 6]: 8.4% | Cardiovascular death as first event, no. of patients [1, 6]: 346 no. | Risk reduction of primary composite outcome compared to placebo ([1]; overall population, median 22 months): 8% | Cardiovascular death, % of patients ([1]; secondary outcome, N = 4120): 19.6% | Cardiovascular death, no. of patients ([1]; secondary outcome, N = 4120): 808 no. | All-cause death, hazard ratio (95% CI) [1]: 1.00 | Cardiovascular death, hazard ratio (95% CI) [1]: 1.01 | Heart failure event, hazard ratio (95% CI) [1]: 0.93 | Heart failure hospitalization, hazard ratio (95% CI) [1]: 0.95 | All-cause death, hazard ratio (95% CI) ([1]; listed as Omecamtiv Mecarbil): 1.00 (0.92, 1.09) | Cardiovascular death, hazard ratio (95% CI) ([1]; listed as Omecamtiv Mecarbil): 1.01 (0.92, 1.11) | Heart failure event, hazard ratio (95% CI) ([1]; listed as Omecamtiv Mecarbil): 0.93 (0.86, 1.00) | Heart failure hospitalization, hazard ratio (95% CI) ([1]; listed as Omecamtiv Mecarbil): 0.95 (0.87, 1.03) | Primary composite outcome, hazard ratio (95% CI) [1]: 0.92 | Primary composite outcome, hazard ratio (95% CI) ([1]; listed as Omecamtiv Mecarbil): 0.92 (0.86, 0.99) | Cumulative rate of HFEs at 36 months [2, 7]: 81.8/ /100 pts | Frequency of HFE (all events) [2, 7]: 31.2/ /100 pt yrs | IV Diuretics /Inotropes Nasodilators [2, 7]: 35.7 /100 pt yrs | Mechanical circulatory support during HF hospitalizations [2, 7]: 2.2 /100 pt yrs | Mechanical fluid removal during HF hospitalizations [2, 7]: 0.8 /100 pt yrs | Time to first HFE, rate [2, 7]: 18.9/ /100 pt yrs | Total days in hospital [2, 7]: 524.1 /100 pt yrs | Cumulative rate of HFEs at 36 months, Rate Ratio [2, 8]: Rate Ratio 0.799 | Cumulative rate of HFEs: treatment effect over time [2, 8]: increasing | Frequency of HFE (all events), ARR [2, 8]: ARR 6.7/100 pt yrs | Frequency of HFE (all events), HR [2, 8]: HR 0.85, | Frequency of HFE (all events), NNT [2, 8]: NNT 14.9 | Time to first HFE, ARR [2, 8]: ARR 3.8/100 pt yrs | Time to first HFE, NNT [2, 8]: NNT 26.5 | Clinical benefits and resource utilization ([2]; EF≤30%, without AFF, without digoxin at baseline, result in words): significant clinical benefits and reductions in resource utilization | Parent compound recovered in urine [3]: 8% | Dose excreted in urine ([3]; primarily as metabolites): approximately 49% | Dose excreted in feces ([3]; primarily as unchanged drug): ~38% | % Change of OM AUC (↑ = increase) [4, 9]: ↑30% | % Change of OM Cmax (↓ = decrease) [4, 9]: ↓18% | Mean Ratio of OM AUC (90% CI) [4, 9]: 1.30 (0.93-1.82) | Mean Ratio of OM Cmax (90% CI) [4, 9]: 0.82 (0.63-1.07) | % Change of OM AUC (↑ = increase) [4, 10]: ↑ 21% | Mean Ratio of OM AUC (90% CI) [4, 10]: 1.21 (1.08-1.36) | Mean Ratio of OM Cmax (90% CI) [4, 10]: 1.08 (0.96-1.22) | % Change of OM Cmax (↓ = decrease) [4, 11]: ↓21% | Mean Ratio of OM AUC (90% CI) [4, 11]: 1.08 (0.97-1.22) | Mean Ratio of OM Cmax (90% CI) [4, 11]: 0.79 (0.60-1.04) | Mean Ratio of OM AUC (90% CI) [4, 12]: 0.95 (0.82-1.09) | Mean Ratio of OM Cmax (90% CI) [4, 12]: 1.01 (0.95-1.07) | % Change of OM AUC (↑ = increase) [4, 13]: ↑51% | Mean Ratio of OM AUC (90% CI) [4, 13]: 1.51 (1.20-1.91) | Mean Ratio of OM Cmax (90% CI) [4, 13]: 1.03 (0.76-1.40) | Induction of CYP3A4 (CYP3A4): weak inducer
